Test results reported in patent US11071731B2, “Allosteric modulators of the mu opioid receptor” (Chiromics, LLC, priority 2017, dated 2021).

How the values were obtained:
[1] = target: T1, mu opioid receptor (MOR) (Homo sapiens, UniProt P35372); assay: PathHunter β-arrestin recruitment assay, PAM mode with EC20 endomorphin-1; type: cell-based; details: for β-arr Max. Resp.: maximal response for β-arrestin recruitment; for EC50: β-arrestin recruitment, read-out: β-arr. EC50
Method in brief: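 β-Arrestin recruitment to the receptor was tracked by chemiluminescent β-galactosidase activity from complementing fragments (ED on receptor, EA on β-arrestin). Per-compound outputs were EC50 and percent maximal response.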

[2] = target: T1, mu opioid receptor (MOR); assay: Hit Hunter cAMP signaling assay (adenylyl cyclase inhibition), PAM mode with EC20 endomorphin-1; type: cell-based; details: for cAMP Max. Resp.: maximal response for adenylyl cyclase inhibition
[3] = cAMP EC50, adenylyl cyclase inhibition
[4] = adenylyl cyclase inhibition, read-out: cAMP EC50

T1 sequence (P35372 whole entry, the tested form may be a part): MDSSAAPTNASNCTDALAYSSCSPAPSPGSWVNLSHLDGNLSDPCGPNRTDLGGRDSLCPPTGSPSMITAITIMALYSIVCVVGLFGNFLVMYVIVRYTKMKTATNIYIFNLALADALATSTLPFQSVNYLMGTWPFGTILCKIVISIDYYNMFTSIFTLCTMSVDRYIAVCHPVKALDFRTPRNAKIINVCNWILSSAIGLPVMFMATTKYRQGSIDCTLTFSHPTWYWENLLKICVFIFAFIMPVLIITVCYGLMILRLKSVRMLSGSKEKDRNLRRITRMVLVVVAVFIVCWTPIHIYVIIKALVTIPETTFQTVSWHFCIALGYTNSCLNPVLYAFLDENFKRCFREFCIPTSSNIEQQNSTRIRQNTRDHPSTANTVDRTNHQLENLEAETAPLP

Row | Structure (SMILES) | β-arr Max. Resp. [1] | EC50 [1] [nM] | EC50 [2, 3] [nM] | cAMP Max. Resp. [2] | EC50 [2, 4] [nM]
1 | CN(C)c1ncc(F)c(N2CCCCC2c2cccc(F)n2)n1 (stereo not shown) [compound 242] | D (D represents a maximal response of < 40%) | > 2100 | > 2100 | D (D represents a maximal response of < 40%) | –
2 | CN(C)c1cccc(C2CCCCN2c2nc(N(C)C)ncc2F)n1 (stereo not shown) [compound 243] | F (F represents a maximal response of > 60%) | > 2100 | > 2100 | E (E represents a maximal response of 40-60%) | –
3 | Fc1ccc(C2CC=CCN2c2nc(Cl)ncc2F)cc1Br (stereo not shown) [compound 244] | F (F represents a maximal response of > 60%) | < 700 | – | D (D represents a maximal response of < 40%) | < 700
4 | COc1ccc(C2CCCCN2Cc2cccc(Cl)c2F)cc1Br (stereo not shown) [compound 245] | D (D represents a maximal response of < 40%) | > 2100 | > 2100 | D (D represents a maximal response of < 40%) | –
5 | Fc1ccc(C2CC(F)(F)CCN2c2nc(Cl)ncc2F)cc1Br (stereo not shown) [compound 246] | F (F represents a maximal response of > 60%) | 700 to 2100 | 700 to 2100 | D (D represents a maximal response of < 40%) | –
6 | CCCC1CCCN(c2nc(Cl)ncc2F)C1c1cccc(C(F)(F)F)c1 (stereo not shown) [compound 247] | F (F represents a maximal response of > 60%) | > 2100 | – | E (E represents a maximal response of 40-60%) | > 2100
7 | CCC1CCCN(c2nc(Cl)ncc2F)C1c1ccc(OC)c(Br)c1 (stereo not shown) [compound 248] | F (F represents a maximal response of > 60%) | > 2100 | – | E (E represents a maximal response of 40-60%) | > 2100
8 | COc1ccc(C2C(C)CCCN2c2nc(Cl)ncc2F)cc1Br (stereo not shown) [compound 249] | F (F represents a maximal response of > 60%) | > 2100 | – | E (E represents a maximal response of 40-60%) | > 2100
9 | CCC1CCCN(c2nc(Cl)ncc2F)C1c1ccc(OC)c(Br)c1 (stereo not shown) [compound 251] | F (F represents a maximal response of > 60%) | > 2100 | – | D (D represents a maximal response of < 40%) | > 2100
10 | Fc1cc(C2CCCCCN2c2nc(Cl)ncc2F)cc(C(F)(F)F)c1 (stereo not shown) [compound 252] | F (F represents a maximal response of > 60%) | > 2100 | – | E (E represents a maximal response of 40-60%) | > 2100
11 | Fc1cnc(Cl)nc1N1CCCCCC1c1cccc(C(F)(F)F)n1 (stereo not shown) [compound 253] | F (F represents a maximal response of > 60%) | > 2100 | – | E (E represents a maximal response of 40-60%) | > 2100
12 | CCN(CC)c1ncc(F)c(N2CCCCC2c2cccc(C(F)(F)F)c2)n1 (stereo not shown) [compound 254] | D (D represents a maximal response of < 40%) | > 2100 | > 2100 | E (E represents a maximal response of 40-60%) | –
13 | Fc1cnc(N2CCOCC2)nc1N1CCCCC1c1cccc(C(F)(F)F)c1 (stereo not shown) [compound 255] | D (D represents a maximal response of < 40%) | > 2100 | > 2100 | F (F represents a maximal response of > 60%) | –
14 | OC1CN(c2ncc(F)c(N3CCCCC3c3cccc(C(F)(F)F)c3)n2)C1 (stereo not shown) [compound 256] | D (D represents a maximal response of < 40%) | > 2100 | > 2100 | D (D represents a maximal response of < 40%) | –
15 | FC(F)(F)c1cccc(C2CCCCN2c2ccnc(Cl)n2)c1 (stereo not shown) [compound 257] | F (F represents a maximal response of > 60%) | > 2100 | > 2100 | D (D represents a maximal response of < 40%) | –
16 | FC(F)(F)c1cccc(C2CCCCN2c2nccc(Cl)n2)c1 (stereo not shown) [compound 258] | E (E represents a maximal response of 40-60%) | > 2100 | > 2100 | F (F represents a maximal response of > 60%) | –

Row | Structure (SMILES) | β-arr Max. Resp. [1] | EC50 [1] [nM] | EC50 [2, 3] [nM] | cAMP Max. Resp. [2] | EC50 [2, 4] [nM]
17 | Fc1cccc(C2CCCCN2c2ccnc(Cl)n2)n1 (stereo not shown) [compound 259] | D (D represents a maximal response of < 40%) | > 2100 | > 2100 | D (D represents a maximal response of < 40%) | –
18 | Fc1cccc(C2CCCCN2c2nccc(Cl)n2)n1 (stereo not shown) [compound 260] | D (D represents a maximal response of < 40%) | > 2100 | > 2100 | D (D represents a maximal response of < 40%) | –
19 | Fc1cnc(Cl)cc1N1CCCCC1c1cccc(C(F)(F)F)c1 (stereo not shown) [compound 261] | F (F represents a maximal response of > 60%) | 700 to 2100 | > 2100 | D (D represents a maximal response of < 40%) | –
20 | Fc1cccc(C2CCCCN2c2cc(Cl)ncc2F)n1 (stereo not shown) [compound 262] | E (E represents a maximal response of 40-60%) | > 2100 | > 2100 | D (D represents a maximal response of < 40%) | –
21 | Fc1ccc(Cl)nc1N1CCCCC1c1cccc(C(F)(F)F)c1 (stereo not shown) [compound 263] | F (F represents a maximal response of > 60%) | 700 to 2100 | 700 to 2100 | D (D represents a maximal response of < 40%) | –
22 | Fc1cccc(C2CCCCN2c2nc(Cl)ccc2F)n1 (stereo not shown) [compound 264] | E (E represents a maximal response of 40-60%) | > 2100 | 700 to 2100 | F (F represents a maximal response of > 60%) | –
23 | Cc1cnc(Cl)nc1N1CCCCC1c1cccc(C(F)(F)F)c1 (stereo not shown) [compound 265] | F (F represents a maximal response of > 60%) | > 2100 | > 2100 | E (E represents a maximal response of 40-60%) | –
24 | Cc1cnc(N2CCCCC2c2cccc(C(F)(F)F)c2)nc1Cl (stereo not shown) [compound 266] | E (E represents a maximal response of 40-60%) | > 2100 | > 2100 | D (D represents a maximal response of < 40%) | –
25 | Cc1cnc(Cl)nc1N1CCCCC1c1cccc(F)n1 (stereo not shown) [compound 267] | D (D represents a maximal response of < 40%) | > 2100 | > 2100 | E (E represents a maximal response of 40-60%) | –
26 | Cc1cnc(N2CCCCC2c2cccc(F)n2)nc1Cl (stereo not shown) [compound 268] | D (D represents a maximal response of < 40%) | > 2100 | > 2100 | F (F represents a maximal response of > 60%) | –
27 | Cc1ncc(F)c(N2CCCCC2c2cccc(C(F)(F)F)c2)n1 (stereo not shown) [compound 269] | F (F represents a maximal response of > 60%) | > 2100 | > 2100 | D (D represents a maximal response of < 40%) | –
28 | Cc1ncc(F)c(N2CCCCC2c2cccc(F)n2)n1 (stereo not shown) [compound 270] | D (D represents a maximal response of < 40%) | > 2100 | > 2100 | D (D represents a maximal response of < 40%) | –
29 | COc1ncc(F)c(N2CCCCC2c2cccc(C(F)(F)F)c2)n1 (stereo not shown) [compound 271] | F (F represents a maximal response of > 60%) | > 2100 | 700 to 2100 | E (E represents a maximal response of 40-60%) | –
30 | COc1ncc(F)c(N2CCCCC2c2cccc(F)n2)n1 (stereo not shown) [compound 272] | D (D represents a maximal response of < 40%) | > 2100 | > 2100 | F (F represents a maximal response of > 60%) | –
31 | Fc1cnc(Cl)nc1N1CCCCC1c1cncc(C(F)(F)F)n1 (stereo not shown) [compound 274] | F (F represents a maximal response of > 60%) | > 2100 | 700 to 2100 | D (D represents a maximal response of < 40%) | –
